Test [1] addresses T1, lysosomal acid lipase (LAL) (Homo sapiens, UniProt P38571).
T1 construct: from tissue; host or cells: dried blood spots (DBS) from healthy adults, healthy children and LAL-deficient patients
T1 sequence (P38571 77-399): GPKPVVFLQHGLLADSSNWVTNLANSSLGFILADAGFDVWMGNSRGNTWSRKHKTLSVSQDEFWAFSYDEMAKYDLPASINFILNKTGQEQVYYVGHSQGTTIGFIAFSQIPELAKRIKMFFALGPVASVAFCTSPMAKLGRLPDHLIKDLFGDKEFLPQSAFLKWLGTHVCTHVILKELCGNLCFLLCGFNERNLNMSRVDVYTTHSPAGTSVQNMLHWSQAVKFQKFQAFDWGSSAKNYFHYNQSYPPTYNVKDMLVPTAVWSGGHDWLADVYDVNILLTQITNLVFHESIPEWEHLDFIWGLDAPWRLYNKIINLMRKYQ
Kind of test: LAL assay development: replacement of cardiolipin by phospholipids and of Triton X-100 by detergent. Type of test: biochemical. To be noted: for change of LAL activity over that measured with cardiolipin: phospholipid tested individually at 0.1 mmol/L as replacement for cardiolipin. Here is the method:
A variety of phospholipids were evaluated as replacements for cardiolipin, which was used in the original LAL assay described by Hamilton et al. (Clin Chim Acta 2012; 413:1207-10). The following phospholipids were tested individually at 0.1 mmol/L: 1,2-dioleoyl-phosphatidylethanolamine, 1,2-dioleoyl-phosphatidylmethanol, 1,2-dioleoyl-phosphatidylcholine, 1,2-dioleoyl-phosphatidylserine, brain phosphatidylethanolamine, 1,2-heptadecyl-phosphatidylcholine, and 1,2-lauryl-phosphatidylcholine.
The original LAL assay described by Hamilton et al. (Clin Chim Acta 2012; 413:1207-10) used Triton X-100 as the detergent, which was replaced this with sodium taurodeoxycholate because this detergent largely remains in the aqueous phase following liquid-liquid extraction with ethyl acetate (thus minimizing injection of large amounts of detergent onto the UPLC column). […] Thus, 2.5 mmol/L was chosen for all subsequent studies.

In test [2] the test system is lysosomal acid lipase (LAL). Kind of test: UPLC-MS/MS LAL assay in dried blood spots (DBS) with substrate P-PMHC. The class given is biochemical, human. Here is the method: Assay mixture was prepared by combining 9 volumes of 0.1 mol/L sodium acetate buffer (made by adding reagent grade NaOH to 0.1 mol/L reagent-grade acetic acid in water), pH 4.5, containing 2.5 mmol/L sodium taurodeoxycholate hydrate (Sigma, 287245) with 1 volume of 0.5% (w/v) bovine heart cardiolipin in ethanol (Sigma, C1649) containing 3 mmol/L substrate palmitoyl 4-propyl-8-methyl-7-hydroxycoumarin (P-PMHC) and 50 μmol/L carbon-13-labeled 4-propyl-8-methyl-7-hydroxycoumarin (internal standard). The latter was prepared by mixing solid substrate P-PMHC with internal standard solution in absolute ethanol, removing solvent in a centrifugal concentrator under vacuum (or with a jet of nitrogen), and then mixing with commercial cardiolipin/ethanol solution. This ethanol stock could be stored at −20° C. for several months (avoid>2-3 freeze-thaw cycles), and the aqueous buffer could be stored at 4° C. for several months. This was based on no change in assay results when new and stored solutions were used. Assay mixture was made fresh before each use.
To a 3-mm punch from a DBS in a 1.5-mL polypropylene Eppendorf tube was added 200 μL of purified water (Milli-Q, EMD Millipore). The tubes were shaken on an orbital platform shaker for 1 h at ambient temperature. The tube of DBS extract was mixed briefly on a vortex-type mixer, and a 10 μL aliquot was added to the well of a polypropylene, deep-well, 96-well plate (Costar, 3959). Assay mixture (30 μL, ambient temperature) was added to each well. The plate was centrifuged at 3000 g for 5 min at ambient temperature to ensure that all liquid was at the well bottom. The plate was sealed with a film cover (Advantage 96-well round clear Silicone/PTFE cap mat 962611). The plate was shaken at 37° C. in an incubator with orbital mixing at 400 rpm for 3 h. The reactions were quenched by addition of 80 μL of purified water (Milli-Q, EMD Millipore) followed by 400 μL of HPLC-grade ethyl acetate. The well contents were mixed by pipetting up and down approximately 10 times. The plate was centrifuged at 3000 g for 5 min at ambient temperature, and then 120 μL of the upper ethyl acetate layer was transferred to a shallow-well, 96-well polypropylene plate (Greigner, 651201). Solvent was removed at ambient temperature with a jet of nitrogen. To each well was added 200 μL of water/methanol (1:1, Fisher Optima Grade), and samples were mixed by pipetting up and down a few times. The plate was wrapped with aluminum foil and placed in the autosampler chamber at 8° C. in preparation for LC-MS/MS analysis.
Liquid chromatography was carried out using a Waters Acquity binary solvent pump system with a CSH, C18, 1.7-μm, 2.1×50-mm column (Waters, 186005296) and a CSH, C18, 1.7-μm guard column (Vanguard, 186005303). The solvent program was 99% A (70:30, water/acetonitrile, 0.1% formic acid, Fisher Optima grade)/1% B (50:50, acetonitrile/isopropanol, 0.1% formic acid) to 30% A/70% B over 1 min, then jump to 100% B and hold for 0.5 min, then to 99% A over 0.5 min (flow rate 0.8 mL/min). The total run time was 2.5 min. Mass spectrometry was carried out with a Waters Xevo TQ tandem-quadrupole instrument.

Test [3] has as its target T1, lysosomal acid lipase (LAL). Kind of test: Testing the library of palmitoyl-4MU analogs as LAL substrates with DBS, with and without Lalistat-2, UPLC-MS/MS. The class given is biochemical. To be noted: for overall ranking in the library (activity and LAL specificity): library of 25 compounds. Here is the method:
The library of palmitoyl-4MU analogs was tested as LAL substrates as follows. Assay cocktail was a solution of 10:1 buffer to substrate stock, each warmed to 37° C. The substrate stock contained 3.7 mM substrate and 0.5% cardiolipin in ethanol. The buffer contained 0.15 M sodium acetate, pH 4.0, and 2.5 mM sodium taurodeoxycholate. Rehydrated blood mixture (40 mL) was combined with 10 mL of H2O or 30 mM Lalistat-2 in an Eppendorf 1.5 mL polypropylene tube and pre-incubated for 15 min at 37° C. with orbital shaking at 250 rpm. Assay cocktail (100 or 150 mL) was added and samples were incubated for 3 hr at 37° C. with orbital shaking at 250 rpm. Assay was quenched by first flash freezing to −80° C. followed by subsequent addition of 400 mL of ethyl acetate and thawing. Samples were then vortexed and centrifuged at 2700×g for 5 min. Top ethyl acetate layer (200 mL) was transferred to an autosampler plate and blown dry under nitrogen gas then resuspended in 1:1 H2O:methanol solution, and […] per well injected for analysis by UPLC-MS/MS. The LC-MS/MS data was converted into mmole of product by using an external standard of 2.5 nmole (the individual corresponding coumarins) spiked into 40 mL rehydrated blood in a 1.5 mL Eppendorf polypropylene tube incubated separately from the assay cocktail, which were quenched immediately following incubation. Additional controls included a Lalistat-2 inhibited rehydrated DBS solution incubated separately from the assay cocktail then combined and immediately quenched as a blank. Unique duplicate spiked controls and blank controls were used for each coumarin analog.

For test [4] the target is unchanged. Put plainly: Previous fluorometric LAL assay (Hamilton et al.) with palmitoyl-4MU with and without Lalistat-2 in DBS. Type of test: biochemical. To be noted: same DBS extract, substrate palmitoyl-4MU, 10 μmol/L Lalistat-2. From the text: LAL is detected in leukocytes or fibroblasts using radiometric, immunologic, or fluorescence assays (The metabolic and molecular bases of inherited disease. 8th Ed. New York (NY): McGraw-Hill; 2001. p. 3827-3387). Hamilton and colleagues recently developed a fluorometric assay to detect LAL in dried blood spots (DBS) (Hamilton et al., Clin Chim Acta 2012; 413:1207-10). The assay is based on the release of 4-methylumbelliferone from its ester with palmitic acid. However, the substrate is not specific for LAL, and the method requires two assays performed in parallel, the first in the presence of a LAL-specific covalent inactivator Lalistat-2. LAL activity is calculated from the difference in these 2 assays.
A concentration of P-PMHC in the mixture of 3 mmol/L was settled on based on a combination of high LAL activity and minimal background. The original assay described by Hamilton et al. (Clin Chim Acta 2012; 413:1207-10) used 40 μL of an aqueous extract of a 3-mm DBS added to 160 μL of assay mixture. To keep the solvent volumes for the liquid-liquid extraction to a minimum, thus avoiding long times for solvent removal, 10 μL of an aqueous extract of a 3-mm DBS punch was added to 30 μL of assay mixture.

Each structure is given as a SMILES string. Values joined by “and” are separate entries in the source; they are usually repeats but may differ in a detail not shown here. Equal entries are not always repeated.

`CCCCCCCCCCCC(=O)OC[C@H](COP(=O)([O-])OCC[N+](C)(C)C)OC(=O)CCCCCCCCCCC` [1,2-lauryl-phosphatidylcholine]: in test [1], the “change of LAL activity over that measured with cardiolipin” value (from here on “change of LAL activity over that”) is listed as “None of these phospholipids led to any substantial increase in LAL”. Take `CCCCCCCCCCCCCCCC(=O)Oc1ccc2c(CCC)cc(=O)oc2c1C` [Compound 1, 4-propyl-8-methyl-7-palmitoyloxycoumarin]: in test [2] (LAL activity toward substrate P-PMHC, tandem mass spectrometry, DBS of Adult 1 (r9) / Adult 2 (r10), triplicate, blank corrected), the “Activity without Lalistat-2” value was 519 µmol/h/L and 539 µmol/h/L and 473 µmol/h/L and 554 µmol/h/L and 582 µmol/h/L. Moreover, the specific activity in test [2] (final assay conditions, 3-mm punch of a DBS from a healthy adult, UPLC-MS/MS) was determined as 874 µmol/h/L. Also, the “specificity of the substrate for LAL in DBS” value in test [2] (from Lalistat-2 inhibition and LAL-deficient patients, listed as P-PMHC) is “highly specific for LAL in DBS”. The “LAL activity in DBS of LAL-deficient patients” value in test [2] (six LAL-deficient patients, UPLC-MS/MS, no Lalistat-2) is given as “close to zero”. For the same molecule, the “substrate activity with DBS as the source of LAL compared to palmitoyl-4MU” value in test [3] (3.7 mM substrate stock, 3 hr 37° C.) was “more active than palmitoyl-4MU”. Also, the “overall ranking in the library (activity and LAL specificity)” value is “highest combination of total lipase activity and LAL-specificity” in test [3]; “best combination of high specific activity on LAL and high specificity for LAL” in test [3] (listed as P-PMHC). In the case of `CCCCCCCC/C=C\CCCCCCCC(=O)OC[C@H](COP(=O)(O)OC[C@H](N)C(=O)O)OC(=O)CCCCCCC/C=C\CCCCCCCC` [1,2-dioleoyl-phosphatidylserine], the “change of LAL activity over that” value in test [1] was “None of these phospholipids led to any substantial increase in LAL”. The same measure, in the same setting: to `CCCCCCCC/C=C\CCCCCCCC(=O)OC[C@H](COP(=O)([O-])OCC[N+](C)(C)C)OC(=O)CCCCCCC/C=C\CCCCCCCC` [1,2-dioleoyl-phosphatidylcholine] belongs “None of these phospholipids led to any substantial increase in LAL”.

For the molecule `O=C(Oc1nsnc1N1CCCCC1)N1CCCCC1` [Lalistat-2, reference compound], the “inhibition of the activity toward P-PMHC” value amounted to 98% in test [2] (DBS extracts from two healthy persons preincubated with 10 μmol/L Lalistat-2) and 99% in test [2] (DBS extracts preincubated with 100 μmol/L Lalistat-2). Also, the “total lipase activity blocked” value in test [4] was found to be 78%. `CCCCCCCC/C=C\CCCCCCCC(=O)OC[C@H](COP(=O)(O)OCCN)OC(=O)CCCCCCC/C=C\CCCCCCCC` [1,2-dioleoyl-phosphatidylethanolamine]: the “change of LAL activity over that” value in test [1] is recorded as “None of these phospholipids led to any substantial increase in LAL”. For the molecule `CCCCCCCC/C=C\CCCCCCCC(=O)OCC(COP(=O)(O)OC)OC(=O)CCCCCCC/C=C\CCCCCCCC` (centres unmarked) [1,2-dioleoyl-phosphatidylmethanol], in test [1], the “change of LAL activity over that” value is given as “None of these phospholipids led to any substantial increase in LAL”.

Regarding `C[C@H](CCC(=O)NCCS(=O)(=O)[O-])[C@H]1CC[C@H]2[C@@H]3CC[C@@H]4C[C@H](O)CC[C@]4(C)[C@H]3C[C@H](O)[C@]12C.[Na+]` [sodium taurodeoxycholate], in test [1] (2.5 mmol/L sodium taurodeoxycholate), the “decrease of LAL activity on replacement of Triton X-100” value came out at 20%. In the case of `CCCCCCCCCCCCCCCCC(=O)OC[C@H](COP(=O)([O-])OCC[N+](C)(C)C)OC(=O)CCCCCCCCCCCCCCCC` [1,2-heptadecyl-phosphatidylcholine], the “change of LAL activity over that” value in test [1] is “None of these phospholipids led to any substantial increase in LAL”.

Values taken from patent publication US11396499B2, “Lysosomal acid lipase assay” (University of Washington, priority 2018, dated 2022).
